Experimental data: ChEMBL document CHEMBL1201862, “PubChem BioAssay data set” (2004)
Activity calls are given as the source filed them. Non-standard residues stand in square brackets, D forms with d. Residues, ends and D or L forms follow the SMILES beside them. dChg = N[C@@H](C(=O)O)C1CCCCC1; NMeA = CN[C@@H](C)C(=O)O

Assays:
[1] = target: Aspartyl aminopeptidase (Plasmodium falciparum 3D7, UniProt Q8I2J3)
[2] = target: T1, E3 ubiquitin-protein ligase XIAP (Homo sapiens, UniProt P98170); assay: Counter Screen using XIAP-Bir3 for Chemical Antagonists of Bir1/2 domains of IAP-family anti-apoptotic proteins. [Related pubchem assays (depositor defined):AID1018, AID1449, AID1514, AID1638, AID1749, AID1750, AID488957, AID488963]
[3] = target: T2, X-box-binding protein 1 (Homo sapiens, UniProt P17861); type: functional, Cricetulus griseus;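 note: confirmatory dose-response counter-screen serving a CHOP assay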
T2 sequence (P17861 whole entry): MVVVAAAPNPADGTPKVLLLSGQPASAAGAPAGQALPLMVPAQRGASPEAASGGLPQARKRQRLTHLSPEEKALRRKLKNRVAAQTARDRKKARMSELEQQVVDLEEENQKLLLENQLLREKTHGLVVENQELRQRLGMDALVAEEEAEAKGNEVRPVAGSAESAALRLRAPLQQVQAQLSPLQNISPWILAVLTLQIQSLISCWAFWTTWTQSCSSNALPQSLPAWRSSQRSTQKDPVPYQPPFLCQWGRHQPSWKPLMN

[4] = target: Procathepsin L (Homo sapiens, UniProt P07711)
[5] = viability loss in HEK293T cells – cell-based, cherry-picks, cytotoxicity control for HIV Vif inhibitor project, dose response (AID 652208); type: functional
[6] = target: T1, E3 ubiquitin-protein ligase XIAP; assay: small molecules displacing peptide from XIAP – biochemical, IAP family, fluorescence polarization (AID 1018); type: functional
[7] = target: DNA damage-inducible transcript 3 protein (Mus musculus, UniProt P35639); type: functional, Cricetulus griseus
[8] = target: T3, Replicative DNA helicase DnaB (Mycobacterium tuberculosis, UniProt P9WMR3); assay: DnaB intein splicing inhibitors, dose response, biochemical, cell-free fluorescence (AID 449749); type: functional
T3 sequence (P9WMR3 whole entry): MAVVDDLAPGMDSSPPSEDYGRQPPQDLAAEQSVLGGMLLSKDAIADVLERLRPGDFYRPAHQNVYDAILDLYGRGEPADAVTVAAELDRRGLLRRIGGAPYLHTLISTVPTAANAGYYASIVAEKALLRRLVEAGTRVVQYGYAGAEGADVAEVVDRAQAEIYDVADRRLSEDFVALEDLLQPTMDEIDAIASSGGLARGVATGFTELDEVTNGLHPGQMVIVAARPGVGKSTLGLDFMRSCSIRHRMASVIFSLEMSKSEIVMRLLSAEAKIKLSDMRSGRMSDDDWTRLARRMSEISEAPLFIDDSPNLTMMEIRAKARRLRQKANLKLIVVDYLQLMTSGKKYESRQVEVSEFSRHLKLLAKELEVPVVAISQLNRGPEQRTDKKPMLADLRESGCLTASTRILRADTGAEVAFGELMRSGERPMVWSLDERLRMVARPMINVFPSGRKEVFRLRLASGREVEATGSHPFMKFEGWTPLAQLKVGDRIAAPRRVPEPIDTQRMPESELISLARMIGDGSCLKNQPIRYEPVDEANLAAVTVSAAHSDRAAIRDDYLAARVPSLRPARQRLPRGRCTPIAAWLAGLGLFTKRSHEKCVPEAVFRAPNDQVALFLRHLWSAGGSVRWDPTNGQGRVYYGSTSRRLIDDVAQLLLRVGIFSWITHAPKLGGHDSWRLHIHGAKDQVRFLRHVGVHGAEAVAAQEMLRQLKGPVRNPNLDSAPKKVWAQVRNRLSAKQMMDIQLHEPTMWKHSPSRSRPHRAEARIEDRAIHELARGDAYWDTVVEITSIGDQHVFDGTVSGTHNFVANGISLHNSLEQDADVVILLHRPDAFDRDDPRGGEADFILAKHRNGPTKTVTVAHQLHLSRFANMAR

[9] = target: T4, Protein RecA (Mycobacterium tuberculosis, UniProt P9WHJ3); assay: Fluorescence Cell-Free Homogeneous Dose Retest to Identify Inhibitors of RecA-Intein Splicing Activity. [Related pubchem assays (depositor defined):AID2097, AID2223, AID489010, AID492950]; type: functional
T4 sequence (P9WHJ3 whole entry): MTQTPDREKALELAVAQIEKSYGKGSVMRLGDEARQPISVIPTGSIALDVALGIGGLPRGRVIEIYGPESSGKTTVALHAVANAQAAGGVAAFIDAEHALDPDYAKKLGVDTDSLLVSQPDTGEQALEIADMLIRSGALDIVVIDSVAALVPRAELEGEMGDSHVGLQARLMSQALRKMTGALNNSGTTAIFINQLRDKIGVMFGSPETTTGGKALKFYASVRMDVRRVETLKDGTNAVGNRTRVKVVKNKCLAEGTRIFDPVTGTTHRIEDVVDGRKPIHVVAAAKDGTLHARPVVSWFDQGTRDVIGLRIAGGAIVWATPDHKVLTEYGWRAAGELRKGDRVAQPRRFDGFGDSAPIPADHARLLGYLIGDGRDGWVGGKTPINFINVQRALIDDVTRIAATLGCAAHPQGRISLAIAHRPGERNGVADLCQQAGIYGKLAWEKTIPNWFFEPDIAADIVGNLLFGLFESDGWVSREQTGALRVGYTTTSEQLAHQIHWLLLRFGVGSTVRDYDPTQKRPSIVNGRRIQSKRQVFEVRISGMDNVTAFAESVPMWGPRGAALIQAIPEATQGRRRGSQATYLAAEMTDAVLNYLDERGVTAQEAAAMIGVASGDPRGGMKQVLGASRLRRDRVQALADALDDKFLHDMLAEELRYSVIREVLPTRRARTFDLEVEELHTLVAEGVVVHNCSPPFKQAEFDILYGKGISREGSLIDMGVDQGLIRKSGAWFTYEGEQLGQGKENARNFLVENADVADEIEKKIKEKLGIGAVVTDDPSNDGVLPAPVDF

[10] = target: Protein-arginine deiminase type-4 (Homo sapiens, UniProt Q9UM07); assay: IC50 against protein arginine deiminase 4 – biochemical, fluorescence readout, dose response (AID 492970)
[11] = target: T1, E3 ubiquitin-protein ligase XIAP; assay: SAR analysis of Antagonists of XIAP-Bir3 domain of IAP-family anti-apoptotic proteins. [Related pubchem assays (depositor defined):AID1018, AID1449, AID1513, AID1514, AID1638]
[12] = target: T1, E3 ubiquitin-protein ligase XIAP; assay: SAR analysis of Antagonists of IAP-family anti-apoptotic proteins. [Related pubchem assays (depositor defined):AID1018, AID1449, AID1513, AID1514, AID1638]
[13] = target: T5, Sphingosine 1-phosphate receptor 4 (Homo sapiens, UniProt O95977); assay: Fluorescence dose response cell-based high throughput screening assay for agonists of the Sphingosine 1-Phosphate Receptor 4 (S1P4). [Related pubchem assays: 1509 (Primary screen.), 1523 (Confirmation screen in triplicates.)]; type: functional
T5 sequence (O95977 whole entry): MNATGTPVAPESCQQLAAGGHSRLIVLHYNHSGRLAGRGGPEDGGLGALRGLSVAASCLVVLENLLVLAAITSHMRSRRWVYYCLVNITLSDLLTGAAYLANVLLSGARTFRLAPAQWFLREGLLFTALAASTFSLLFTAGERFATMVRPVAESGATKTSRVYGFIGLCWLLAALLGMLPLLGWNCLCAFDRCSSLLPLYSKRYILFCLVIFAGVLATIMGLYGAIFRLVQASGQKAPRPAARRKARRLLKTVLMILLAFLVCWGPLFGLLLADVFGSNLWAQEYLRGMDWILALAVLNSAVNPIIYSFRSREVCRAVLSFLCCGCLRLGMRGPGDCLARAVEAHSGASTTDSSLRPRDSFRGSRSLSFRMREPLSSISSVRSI

[14] = target: T6, Zinc finger protein mex-5 (Caenorhabditis elegans, UniProt Q9XUB2); assay: potency of MEX-5 RNA-binding blockers – biochemical, C. elegans, fluorescence polarization, dose response (AID 1960)
T6 sequence (Q9XUB2 whole entry): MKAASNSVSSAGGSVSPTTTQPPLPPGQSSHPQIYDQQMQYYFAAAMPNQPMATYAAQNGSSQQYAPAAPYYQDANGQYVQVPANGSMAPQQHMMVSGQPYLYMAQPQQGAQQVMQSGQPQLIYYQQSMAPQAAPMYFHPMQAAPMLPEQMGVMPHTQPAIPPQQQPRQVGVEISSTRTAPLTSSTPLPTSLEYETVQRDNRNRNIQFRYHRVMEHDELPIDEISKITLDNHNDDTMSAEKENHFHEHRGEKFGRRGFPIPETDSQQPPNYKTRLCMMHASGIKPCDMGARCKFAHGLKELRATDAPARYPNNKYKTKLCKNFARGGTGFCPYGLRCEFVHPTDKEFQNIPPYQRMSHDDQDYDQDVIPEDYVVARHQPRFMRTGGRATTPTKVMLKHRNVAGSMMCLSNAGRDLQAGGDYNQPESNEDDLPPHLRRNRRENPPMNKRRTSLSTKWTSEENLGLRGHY

[15] = target: Sphingosine 1-phosphate receptor 1 (Homo sapiens, UniProt P21453); assay: Fluorescence-based counterscreen assay for S1P4 agonists: Cell-based dose response high throughput screening assay to identify agonists of the Sphingosine 1-Phosphate Receptor 1 (S1P1). [Related pubchem assays (depositor defined):AID1509, AID1523, AID1801, AID463107, AID463118, AID463119, AID463122, AID463123, AID463129, AID463225, AID504400, AID504460]; type: functional
[16] = target: T7, RNA-binding protein pos-1 (Caenorhabditis elegans, UniProt G5EF15); assay: disruptors of C. elegans POS-1 RNA interaction – biochemical, fluorescence polarization, dose response (AID 1964);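 note: purified POS-1 fused to maltose binding protein made in E. coli; potency of compounds blocking POS-1 binding to fluorescent RNA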
T7 sequence (G5EF15 whole entry): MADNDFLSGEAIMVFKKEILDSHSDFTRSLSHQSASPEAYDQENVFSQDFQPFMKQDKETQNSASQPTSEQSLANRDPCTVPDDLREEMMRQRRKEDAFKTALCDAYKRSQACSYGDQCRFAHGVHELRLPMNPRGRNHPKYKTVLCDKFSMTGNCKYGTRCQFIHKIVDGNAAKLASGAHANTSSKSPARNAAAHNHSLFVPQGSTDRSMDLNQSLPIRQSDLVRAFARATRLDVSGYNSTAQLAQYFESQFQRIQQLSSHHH

[17] = target: Delta-type opioid receptor (Homo sapiens, UniProt P41143); assay: SAR Analysis of Antagonists of the DOR Receptor using an Image-Based Assay - Set 2. [Related pubchem assays (depositor defined):AID1777, AID1785, AID1786, AID1966, AID2133, AID2136, AID2284, AID2285, AID2357]; type: functional
[18] = target: T8, Kappa-type opioid receptor (Homo sapiens, UniProt P41145); assay: SAR analysis of small molecule agonists of the kappa opioid receptor via a luminescent beta-arrestin assay - Set 2. [Related pubchem assays (depositor defined):AID1777, AID1785, AID1786, AID1966, AID2133, AID2136, AID2284, AID449737]; type: functional
[19] = target: T8, Kappa-type opioid receptor; assay: SAR analysis of Antagonists of the Kappa Opioid Receptor (KOR) using an Image-Based Assay - Set 2. [Related pubchem assays (depositor defined):AID1777, AID1785, AID1786, AID1966, AID2133, AID2136, AID2284, AID2285, AID2348]; type: functional
[20] = target: Peroxisome proliferator-activated receptor gamma/Nuclear receptor coactivator 2 (Homo sapiens, UniProt P37231); assay: (§1) TR-FRET dose response biochemical High Throughput Screening assay for agonists of the steroid receptor coactivator 2 (SRC-2) recruitment by the peroxisome proliferator-activated receptor gamma (PPAR gamma): non-selective agonists. [Related pubchem assays: 1297, 1032 ]; type: functional
[21] = target: Peroxisome proliferator-activated receptor gamma/Nuclear receptor coactivator 1 (Homo sapiens, UniProt P37231); assay: as §1, with “1 (SRC-1)” for “2 (SRC-2)”, “assays (depositor defined):AID1300, AID1808, AID504735, AID631]” for “assays: 1297, 1032 ]”; type: protein assay
[22] = target: Peroxisome proliferator-activated receptor gamma/Nuclear receptor coactivator 3 (Homo sapiens, UniProt P37231); assay: as §1, with “3 (SRC-3)” for “2 (SRC-2)”, “1301 (Confirmation screen.), 1048 (Primary screen.)]” for “1297, 1032 ]”; type: functional
[23] = target: Troponin, cardiac muscle (Homo sapiens, UniProt P19429+P45379+P63316); assay: Fluorescence-based biochemical high throughput dose response assay for activators of the calcium sensitivity of cardiac Regulated Thin Filaments (RTF). [Related pubchem assays (depositor defined):AID493008, AID493018, AID504382, AID504383]; type: protein-complex assay
[24] = target: Intestinal-type alkaline phosphatase (Homo sapiens, UniProt P09923); assay: human intestinal alkaline phosphatase activators, dose response, biochemical, luminescence, uHTS hits (AID 463120); type: functional

Cc1cc(NC(=O)NC2(C(F)(F)F)Oc3ccc(Cl)cc3O2)no1 (centres undefined)
IC50 [1]: 1.69 µM (active) | IC50 [2]: > 100 µM (inactive) | Absolute IC50 (XBP1) [3]: < 10 µM | IC50 [4]: > 59.6 µM (not active) | AC50 [5]: 38 µM (active) | IC50 [6]: > 100 µM (not active) | Absolute IC50 (CHOP) [7]: 10 µM

COC(=O)c1nc(O)c2ccccc2c1O
AC50 [8]: 5.62 µM (active) | EC50 [9]: 3.57 µM (active) | IC50 [10]: 42 µM (inactive)

CC1CCCc2ccccc21.CN[C@@H](C)C(=O)N[C@@H](C(=O)N1CCC[C@H]1C(N)=O)C1CCCCC1 (H-[NMeA]-[dChg]-Pro-NH2)
IC50 [11]: > 100 µM (inactive) | IC50 [12]: > 100 µM (inactive)

CCOC(=O)c1c(-n2c(C)cc(C=C3C(=O)NC(=O)NC3=O)c2C)sc2c1CCCC2
EC50 [13]: > 16.6 µM (not active) | EC50 [14]: > 300 µM (inconclusive) | EC50 [15]: > 49.8 µM (inactive) | EC50 [16]: > 300 µM (inconclusive)

CC[C@](C)(C(=O)Nc1ccc(Br)cc1)N(Cc1ccco1)C(=O)c1ccccn1
IC50 [17]: > 32 µM (inactive) | EC50 [18]: 0.0802 µM (active) | IC50 [19]: > 32 µM (inactive)

CNC(=S)N1N=C(c2ccc(Br)cc2)CC1c1ccc(N(C)C)cc1 (centres undefined)
EC50 [20]: 14 µM (not active) | EC50 [21]: 11.6 µM (inactive) | EC50 [22]: > 79.4 µM (not active) | EC50 [23]: 40 µM (inactive)

O=C(COc1ccc(Br)cc1)NCCCn1ccnc1
EC50 [24]: > 100 µM (inactive)
